Reference: patent US20150133431A1, “GGA DERIVATIVES” (COYOTE PHARMACEUTICALS, INC., priority 2013, published 2015)

Columns and labels:
[1] = tested on: cells; experiment: cytoprotective effects on cells, GGA isomers; type: cell-based
Description: The isolated cis- and trans-compounds described herein are also useful in assays which access a compound having putative cytoprotective effects. In particular, in such assays, the cis-isomer of GGA will behave as baseline or negative control and the trans-isomer as a positive control. The putative compound is tested in the assay described variously herein and its activity correlated against the cis- and trans-isomers. […] Accordingly, the cis-isomer finds utility as a negative control in the assay.

[2] = in certain situations; Katsuno et al., PNAS 2003; cited from earlier work

CC(=O)CC/C=C(/C)CC/C=C(\C)CC/C=C(\C)CCC=C(C)C [cis-isomer, 5Z,9E,13E-Geranylgeranyl acetone]
effect of increasing amounts of cis-isomer on activity of trans-isomer ([1]; increasing amounts of the cis-isomer): antagonize the activity of the trans-isomer

CC(=O)CC/C=C(\C)CC/C=C(\C)CC/C=C(\C)CCC=C(C)C [trans-isomer of GGA, 5E,9E,13E-Geranylgeranyl acetone]
cytoprotective efficacy compared with 1:2 to 1:3 cis:trans mixture of GGA and cis-isomer alone ([1]; comparison of isomers): more efficacious at lower concentrations

CC(=O)CC/C=C(\C)CC/C=C(\C)CC/C=C(\C)CCC=C(C)C [GGA, Geranylgeranyl acetone]
concentration of GGA required to exert a cytoprotective effect [2]: more than 600 mg per kg per day
